Activity calls are given as the source filed them. No cut-off for these calls is given here.
System: PC-3
Test: Cell cycle arrest in human PC3 cells harboring p53 mutant assessed as mitotic index at 10 uM measured after 48 hrs by Hoechst staining based fluorescence assay (reference value: 2.5)
Format: functional
Conditions: not given

Row | Compound | Activity_index
1 | COc1cc(OC)c(C(=O)/C=C/c2ccccc2)c(OC)c1 | 18

System: Huh-7
Test: Cell cycle arrest in human HuH7 cells assessed as accumulation at S phase at 25 uM measured after 48 hrs by Hoechst/BrdU staining based fluorescence assay (reference value: 44%)
Format: functional
Conditions: not given

Row | Compound | Activity [%]
2 | COc1cc(OC)c(C(=O)/C=C/c2ccccc2)c(OC)c1 | 0.7

System: HCT-116
Test: Cell cycle arrest in human HCT116 cells assessed as accumulation at G1/S phase by Hoechst staining based fluorescence assay
Format: functional
Conditions: not given

Row | Compound | Activity
3 | COc1cc(OC)c(C(=O)/C=C/c2ccccc2)c(OC)c1 | Active

System: Huh-7
Test: Cytotoxicity against human HuH7 cells assessed as cell survival at 50 uM after 48 hrs by Hoechst 33342 staining based assay relative to control
Format: functional
Conditions: Huh-7, 48 h, read-out: Survival

Row | Compound | viability at 50 µM [%]
4 | COc1cc(OC)c(C(=O)/C=C/c2ccccc2)c(OC)c1 | 6

System: not listed separately
Test: Selectivity index, ratio of IC50 for human fibroblasts to IC50 for human PC3 cells
Conditions: not given

Row | Compound | Ratio IC50
5 | COc1cc(OC)c(C(=O)/C=C/c2ccccc2)c(OC)c1 | >9.8

System: HaCaT
Test: Cell cycle arrest in human HaCaT cells assessed as accumulation at M phase by Hoechst staining based fluorescence assay
Format: functional
Conditions: not given

Row | Compound | Activity
6 | COc1cc(OC)c(C(=O)/C=C/c2ccccc2)c(OC)c1 | Active

System: HCT-116
Test: Induction of apoptosis in human HCT116 cells harboring wild-type p53 assessed as increase in cleaved caspase3 at 2 times IC50 after 48 hrs by Hoechst staining based assay
Format: functional, cell-based
Conditions: not given

Row | Compound | Activity
7 | COc1cc(OC)c(C(=O)/C=C/c2ccccc2)c(OC)c1 | Active

System: HCT-116
Test: Cell cycle arrest in human HCT116 cells harboring wild-type p53 assessed as mitotic index at 10 uM measured after 48 hrs by Hoechst staining based fluorescence assay (reference value: 2.3)
Format: functional
Conditions: not given

Row | Compound | Activity_index
8 | COc1cc(OC)c(C(=O)/C=C/c2ccccc2)c(OC)c1 | 2

System: NCI-H727
Test: Cell cycle arrest in human NCI-H727 cells assessed as accumulation at G1/S phase by Hoechst staining based fluorescence assay
Format: functional
Conditions: not given

Row | Compound | Activity
9 | COc1cc(OC)c(C(=O)/C=C/c2ccccc2)c(OC)c1 | Active

System: Caco-2
Test: Cytotoxicity against human Caco2 cells assessed as cell viability after 48 hrs by Hoechst 33342 staining based assay
Format: functional
Conditions: Caco-2, 48 h

Row | Compound | IC50 [µM]
10 | COc1cc(OC)c(C(=O)/C=C/c2ccccc2)c(OC)c1 | 5.8

System: not listed separately
Test: Cytotoxicity against human fibroblasts assessed as cell survival at 50 uM after 48 hrs by Hoechst 33342 staining based assay relative to control
Parameters: species or system Fibroblast
Conditions: read-out: Survival

Row | Compound | viability at 48 h, 50 µM [%]
11 | COc1cc(OC)c(C(=O)/C=C/c2ccccc2)c(OC)c1 | 74

System: NCI-H727
Test: Cytotoxicity against human NCI-H727 cells assessed as cell viability after 48 hrs by Hoechst 33342 staining based assay
Format: functional
Conditions: NCI-H727, 48 h

Row | Compound | IC50 [µM]
12 | COc1cc(OC)c(C(=O)/C=C/c2ccccc2)c(OC)c1 | 11.4

System: HCT-116
Test: Induction of apoptosis in human HCT116 cells harboring wild-type p53 assessed as increase in late apoptosis at 2 times IC50 after 48 hrs by YoPro/propidium iodide/Hoechst staining based assay
Format: functional, cell-based
Conditions: not given

Row | Compound | Activity
13 | COc1cc(OC)c(C(=O)/C=C/c2ccccc2)c(OC)c1 | Active

System: NCI-H727
Test: Cell cycle arrest in human NCI-H727 cells harboring p53 mutant assessed as mitotic index at 10 uM measured after 48 hrs by Hoechst staining based fluorescence assay (reference value: 1.1)
Format: functional
Conditions: not given

Row | Compound | Activity_index
14 | COc1cc(OC)c(C(=O)/C=C/c2ccccc2)c(OC)c1 | 1.3

System: Caco-2
Test: Cell cycle arrest in human Caco2 cells assessed as accumulation at M phase by Hoechst staining based fluorescence assay
Format: functional
Conditions: not given

Row | Compound | Activity
15 | COc1cc(OC)c(C(=O)/C=C/c2ccccc2)c(OC)c1 | Active

System: Fibroblast
Test: Cytotoxicity against human fibroblasts assessed as cell viability after 48 hrs by Hoechst 33342 staining based assay
Conditions: not given

Row | Compound | IC50 [µM]
16 | COc1cc(OC)c(C(=O)/C=C/c2ccccc2)c(OC)c1 | > 20

System: Caco-2
Test: Cell cycle arrest in human Caco2 cells assessed as accumulation at S phase at 10 uM measured after 48 hrs by Hoechst/BrdU staining based fluorescence assay (reference value: […])
Format: functional
Conditions: not given

Row | Compound | Activity [%]
17 | COc1cc(OC)c(C(=O)/C=C/c2ccccc2)c(OC)c1 | 38

System: not listed separately
Test: Selectivity index, ratio of IC50 for human fibroblasts to IC50 for human NCI-H727 cells
Conditions: not given

Row | Compound | Ratio IC50
18 | COc1cc(OC)c(C(=O)/C=C/c2ccccc2)c(OC)c1 | >4.4

System: MCF7
Test: Induction of apoptosis in human MCF7 cells harboring wild-type p53 assessed as upregulation of p21 measured after 48 hrs by Hoechst staining based fluorescence assay
Format: functional, cell-based
Conditions: not given

Row | Compound | Activity
19 | COc1cc(OC)c(C(=O)/C=C/c2ccccc2)c(OC)c1 | Active

System: PC-3
Test: Induction of apoptosis in human PC3 cells harboring p53 mutant assessed as increase in early apoptosis at 2 times IC50 after 48 hrs by YoPro/propidium iodide/Hoechst staining based assay
Format: functional, cell-based
Conditions: not given

Row | Compound | Activity
20 | COc1cc(OC)c(C(=O)/C=C/c2ccccc2)c(OC)c1 | Active

System: HCT-116
Test: Induction of apoptosis in human HCT116 cells harboring wild-type p53 assessed as upregulation of cyclinB1 measured after 48 hrs by Hoechst staining based assay
Format: functional, cell-based
Conditions: not given

Row | Compound | Activity
21 | COc1cc(OC)c(C(=O)/C=C/c2ccccc2)c(OC)c1 | Active

System: NCI-H727
Test: Cell cycle arrest in human NCI-H727 cells harboring p53 mutant assessed as mitotic index at 25 uM measured after 48 hrs by Hoechst staining based fluorescence assay (reference value: 1.1)
Format: functional
Conditions: not given

Row | Compound | Activity_index
22 | COc1cc(OC)c(C(=O)/C=C/c2ccccc2)c(OC)c1 | 0.2

System: HCT-116
Test: Induction of apoptosis in human HCT116 cells harboring wild-type p53 assessed as increase in early apoptosis at 2 times IC50 after 48 hrs by YoPro/propidium iodide/Hoechst staining based assay
Format: functional, cell-based
Conditions: not given

Row | Compound | Activity
23 | COc1cc(OC)c(C(=O)/C=C/c2ccccc2)c(OC)c1 | Active

System: PC-3
Test: Cytotoxicity against human PC3 cells assessed as cell survival at 50 uM after 48 hrs by Hoechst 33342 staining based assay relative to control
Format: functional
Conditions: PC-3, 48 h, read-out: Survival

Row | Compound | viability at 50 µM [%]
24 | COc1cc(OC)c(C(=O)/C=C/c2ccccc2)c(OC)c1 | 29

System: MCF7
Test: Induction of apoptosis in human MCF7 cells harboring wild-type p53 assessed as upregulation of cyclinB1 measured after 18 hrs by Hoechst staining based assay
Format: functional, cell-based
Conditions: not given

Row | Compound | Activity
25 | COc1cc(OC)c(C(=O)/C=C/c2ccccc2)c(OC)c1 | Active

System: not listed separately
Test: Selectivity index, ratio of IC50 for human fibroblasts to IC50 for human HaCaT cells
Conditions: not given

Row | Compound | Ratio IC50
26 | COc1cc(OC)c(C(=O)/C=C/c2ccccc2)c(OC)c1 | >6.9

System: MDA-MB-231
Test: Cell cycle arrest in human MDA-MB-231 cells harboring p53 mutant assessed as mitotic index at 25 uM measured after 48 hrs by Hoechst staining based fluorescence assay (reference value: 2.1)
Format: functional
Conditions: not given

Row | Compound | Activity_index
27 | COc1cc(OC)c(C(=O)/C=C/c2ccccc2)c(OC)c1 | 13.2

System: Huh-7
Test: Cytotoxicity against human HuH7 cells assessed as cell viability after 48 hrs by Hoechst 33342 staining based assay
Format: functional
Conditions: Huh-7, 48 h

Row | Compound | IC50 [µM]
28 | COc1cc(OC)c(C(=O)/C=C/c2ccccc2)c(OC)c1 | 15.5

System: Caco-2
Test: Cell cycle arrest in human Caco2 cells assessed as mitotic index at 10 uM measured after 48 hrs by Hoechst staining based fluorescence assay (reference value: 3.6)
Format: functional
Conditions: not given

Row | Compound | Activity_index
29 | COc1cc(OC)c(C(=O)/C=C/c2ccccc2)c(OC)c1 | 38.7

System: PC-3
Test: Induction of apoptosis in human PC3 cells harboring p53 mutant assessed as increase in cleaved caspase3 at 2 times IC50 after 48 hrs by Hoechst staining based assay
Format: functional, cell-based
Conditions: not given

Row | Compound | Activity
30 | COc1cc(OC)c(C(=O)/C=C/c2ccccc2)c(OC)c1 | Active

System: MDA-MB-231
Test: Induction of apoptosis in human MDA-MB-231 cells harboring p53 mutant assessed as increase in early apoptosis at 2 times IC50 after 24 hrs by YoPro/propidium iodide/Hoechst staining based assay
Format: functional, cell-based
Conditions: not given

Row | Compound | Activity
31 | COc1cc(OC)c(C(=O)/C=C/c2ccccc2)c(OC)c1 | Active

System: HaCaT
Test: Cell cycle arrest in human HaCaT cells harboring […] p53 assessed as mitotic index at 25 uM measured after 48 hrs by Hoechst staining based fluorescence assay (reference value: 2.6)
Format: functional
Conditions: not given

Row | Compound | Activity_index
32 | COc1cc(OC)c(C(=O)/C=C/c2ccccc2)c(OC)c1 | 0.1

System: PC-3
Test: Cytotoxicity against human PC3 cells assessed as cell viability after 48 hrs by Hoechst 33342 staining based assay
Format: functional
Conditions: PC-3, 48 h

Row | Compound | IC50 [µM]
33 | COc1cc(OC)c(C(=O)/C=C/c2ccccc2)c(OC)c1 | 5.1

System: MDA-MB-231
Test: Induction of apoptosis in human MDA-MB-231 cells harboring p53 mutant assessed as increase in cleaved caspase3 at 2 times IC50 after 24 hrs by Hoechst staining based assay
Format: functional, cell-based
Conditions: not given

Row | Compound | Activity
34 | COc1cc(OC)c(C(=O)/C=C/c2ccccc2)c(OC)c1 | Active

System: PC-3
Test: Cell cycle arrest in human PC3 cells harboring p53 mutant assessed as mitotic index at 25 uM measured after 48 hrs by Hoechst staining based fluorescence assay (reference value: 2.5)
Format: functional
Conditions: not given

Row | Compound | Activity_index
35 | COc1cc(OC)c(C(=O)/C=C/c2ccccc2)c(OC)c1 | 1.2

System: Caco-2
Test: Cell cycle arrest in human Caco2 cells assessed as mitotic index at 25 uM measured after 48 hrs by Hoechst staining based fluorescence assay (reference value: 3.6)
Format: functional
Conditions: not given

Row | Compound | Activity_index
36 | COc1cc(OC)c(C(=O)/C=C/c2ccccc2)c(OC)c1 | 13

System: Huh-7
Test: Cell cycle arrest in human HuH7 cells assessed as accumulation at S phase at 10 uM measured after 48 hrs by Hoechst/BrdU staining based fluorescence assay (reference value: 44%)
Format: functional
Conditions: not given

Row | Compound | Activity [%]
37 | COc1cc(OC)c(C(=O)/C=C/c2ccccc2)c(OC)c1 | 45

System: MDA-MB-231
Test: Induction of apoptosis in human MDA-MB-231 cells harboring p53 mutant assessed as upregulation of cyclinB1 after 18 hrs by Hoechst staining based assay
Format: functional, cell-based
Conditions: not given

Row | Compound | Activity
38 | COc1cc(OC)c(C(=O)/C=C/c2ccccc2)c(OC)c1 | Active

System: HCT-116
Test: Cell cycle arrest in human HCT116 cells harboring wild-type p53 assessed as accumulation at S phase at 10 uM measured after 48 hrs by Hoechst/BrdU staining based fluorescence assay (reference value: 68.4%)
Format: functional
Conditions: not given

Row | Compound | Activity [%]
39 | COc1cc(OC)c(C(=O)/C=C/c2ccccc2)c(OC)c1 | 19

Source: ChEMBL document CHEMBL3992552, “Mechanisms of action and structure-activity relationships of cytotoxic flavokawain derivatives” (Bioorg Med Chem, 2017)
